These results are taken from patent publication US7550510B2, “Solid phase synthesis of arylretinamides” (Wisconsin Alumni Research Foundation, priority 2001, dated 2009).

For series [1], the system named is MCF-7 cells. Kind of series: Inhibition of growth of cultured MCF-7 cells (cell number 48 h after a single dose). Type of series: cell-based, human. The settings on record: activity vs. 4-HPR standard. The procedure:
MCF-7 cells were maintained in DMEM supplemented as recommended by ATCC. Cells were plated (10,000/well) and dosed 24 h later dosed with the arylretinamide.

The subject of series [2] is MCF-7 cells. In words: Induction of apoptosis in MCF-7 cells, TUNEL assay. Type of series: cell-based. The settings on record: MCF-7 human breast cancer cell line, FIG. 4. From the text: When DNA strands are cleaved or nicked by nucleases, a large number of 3′-hydroxyl ends are exposed. In the TUNEL assay (terminal deoxynucleotidyl transferase dUTP nick end labeling), these ends are labeled with UTP using mammalian terminal deoxynucleotidyl transferase (TdT), which covalently adds labeled nucleotides to the 3′-hydroxyl ends of these DNA fragments in a template-independent fashion. The UTP is then detected using specific probes (e.g., you can incorporate BrdUTP and then use a fluorescent anti-BrdU antibody). The assay can be used on cells in situ or the cells can be analyzed by flow cytometry.
The ability of arylretinamides 1, 7, 10, 11, 18, 19, 27, 32, 33, 41, 42, and 44 to induce apoptosis in MCF-7 cells was determined using a TUNEL assay as described in Engeland, M V; Nieland, L J W; Ramackers, F C S; Schutte, B; Reutelingsperger, CPM Cytometry 1998, 31, 1, which is specifically incorporated by reference.

Setting [3] is: all at 10^−5 M, 48 hours after a single dose.

The melting point is the temperature, or range, at which the solid turns liquid.

Molecules are shown by their SMILES.

`CC1=C(/C=C/C(C)=C/C=C/C(C)=C/C(=O)Nc2ccc(O)c(Cl)c2)C(C)(C)CCC1` [Compound 11, N-(3′-chloro-4′-hydroxyphenyl)retinamide] gave a melting point of 168 to 169 °C. The growth inhibition entry in series [1] (setting [3]) is “+ (+ = <50% the activity of standard)”. Besides, the “inducing apoptosis of cells” value in series [2] is listed as “effective at inducing apopotosis”.

With `COC(=O)c1cccc(NC(=O)/C=C(C)/C=C/C=C(C)/C=C/C2=C(C)CCCC2(C)C)c1O` [Compound 20, N-(2′-hydroxy-3′-carboxymethylphenyl)retinamide], the growth inhibition result in series [1] (setting [3]) is “−”.

As for `CC1=C(/C=C/C(C)=C/C=C/C(C)=C/C(=O)Nc2cc(C(C)(C)C)ccc2O)C(C)(C)CCC1` [Compound 5, N-(2′-hydroxy-5′-tert-butylphenyl)retinamide], the melting point was 144 to 146.5 °C. The growth inhibition entry in series [1] (setting [3]) was “−”. In turn, `CC1=C(/C=C/C(C)=C/C=C/C(C)=C/C(=O)Nc2ccccc2CO)C(C)(C)CCC1` [Compound 31, N-(2′-hydroxymethylphenyl)retinamide] displayed a melting point of 72 to 74 °C. On to `CC1=C(/C=C/C(C)=C/C=C/C(C)=C/C(=O)Nc2cccc(O)c2C)C(C)(C)CCC1` [Compound 8, N-(3′-hydroxy-2′-methylphenyl)retinamide], for which the melting point lay within 176 to 176.5 °C. Besides, in series [1] (setting [3]), the growth inhibition result is on record as “−”. In the case of `CC(C=CC1=C(C)CCCC1(C)C)=CC=CC(C)=CC(=O)Nc1ccccc1C(=O)O` [Compound 44, N-(2′-carboxyphenyl)retinamide, reference compound], the growth inhibition entry in series [1] (setting [3]) is recorded as “+ (+ = <50% the activity of standard)”. Turning to `CC1=C(/C=C/C(C)=C/C=C/C(C)=C/C(=O)Nc2ccc(O)cc2[N+](=O)[O-])C(C)(C)CCC1` [Compound 16, N-(4′-hydroxy-2′-nitrophenyl)retinamide], the melting point is 112 to 117 °C. For the same compound, the growth inhibition result in series [1] (setting [3]) is “−”.

For the compound `CC1=C(/C=C/C(C)=C/C=C/C(C)=C/C(=O)Nc2cc(C)c(O)cc2C)C(C)(C)CCC1` [Compound 2, N-(4′-hydroxy-2′,5′-dimethylphenyl)retinamide], the growth inhibition entry in series [1] (setting [3]) is “−”.

On to `CC1=C(/C=C/C(C)=C/C=C/C(C)=C/C(=O)Nc2ccc(C)c(O)c2)C(C)(C)CCC1` [Compound 7, N-(3′-hydroxy-4′-methylphenyl)retinamide], for which the melting point lay in the range of 172.5 to 175 °C. For the same compound, in series [1] (setting [3]), the growth inhibition entry is reported as “+ (+ = <50% the activity of standard)”. Further, the “inducing apoptosis of cells” value in series [2] is reported as “effective at inducing apopotosis”.

Compound `CC1=C(/C=C/C(C)=C/C=C/C(C)=C/C(=O)Nc2cc([N+](=O)[O-])ccc2O)C(C)(C)CCC1` [Compound 19, N-(2′-hydroxy-5′-nitrophenyl)retinamide] came in with a melting point of 151.5 to 153 °C. Moreover, the growth inhibition entry in series [1] (setting [3]) was “++ (++ = >50% the activity of standard)”. Consider `COC(=O)c1ccc(O)c(NC(=O)/C=C(C)/C=C/C=C(C)/C=C/C2=C(C)CCCC2(C)C)c1` [Compound 29, N-(2′-hydroxy-5′-carboxymethylphenyl)retinamide], for which the growth inhibition result in series [1] (setting [3]) is “−”. For `CC1=C(/C=C/C(C)=C/C=C/C(C)=C/C(=O)Nc2ccc(O)c(C(=O)O)c2)C(C)(C)CCC1` [Compound 28, N-(4′-hydroxy-3′-carboxyphenyl)retinamide], the growth inhibition entry in series [1] (setting [3]) was “−”.

The compound `CC1=C(/C=C/C(C)=C/C=C/C(C)=C/C(=O)Nc2ccc(O)cc2Cl)C(C)(C)CCC1` [Compound 10, N-(2′-chloro-4′-hydroxyphenyl)retinamide] came in with a melting point of 131.5 to 132.5 °C. The growth inhibition result in series [1] (setting [3]) is on record as “−”. With `CC1=C(/C=C/C(C)=C/C=C/C(C)=C/C(=O)Nc2c(O)cccc2C(=O)O)C(C)(C)CCC1` [Compound 24, N-(2′-hydroxy-6′-carboxyphenyl)retinamide], in series [1] (compound at 3.9 × 10^−6 M), the growth inhibition entry is reported as “−”.

As for `CC1=C(/C=C/C(C)=C/C=C/C(C)=C/C(=O)Nc2cc(Cl)c(O)c(Cl)c2)C(C)(C)CCC1` [Compound 13, N-(3′,5′-dichloro-4′-hydroxyphenyl)retinamide], the melting point was 139 to 140 °C. For the same compound, in series [1] (setting [3]), the growth inhibition result is on record as “−”.

The compound `CC1=C(/C=C/C(C)=C/C=C/C(C)=C/C(=O)Nc2cc(Cl)ccc2O)C(C)(C)CCC1` [Compound 12, N-(5′-chloro-2′-hydroxyphenyl)retinamide] gave a melting point of 115 to 118 °C. Moreover, the growth inhibition entry in series [1] (setting [3]) was “−”.

The compound `CC1=C(/C=C/C(C)=C/C=C/C(C)=C/C(=O)Nc2ccc(O)cc2C)C(C)(C)CCC1` [Compound 1, N-(2′-methyl-4′-hydroxyphenyl)retinamide] had a melting point of 141 to 145 °C. Besides, the growth inhibition result in series [1] (setting [3]) was “−”. The “inducing apoptosis of cells” value in series [2] is listed as “effective at inducing apopotosis”. Turning to `CCOc1ccc(NC(=O)/C=C(C)/C=C/C=C(C)/C=C/C2=C(C)CCCC2(C)C)cc1` [Compound 45, N-(4′-ethoxyphenyl)retinamide, reference compound], the growth inhibition result in series [1] (compound at 7.4 × 10^−6 M) was “−”.

As to `CC1=C(/C=C/C(C)=C/C=C/C(C)=C/C(=O)Nc2cccc(CO)c2)C(C)(C)CCC1` [Compound 32, N-(3′ hydroxymethylphenyl)retinamide], the melting point lay in the range of 118 to 120.5 °C. Besides, the growth inhibition result in series [1] (setting [3]) is listed as “+ (+ = <50% the activity of standard)”. Further, the “inducing apoptosis of cells” value in series [2] is given as “perhaps, 32 are effective at inducing apopotosis”. Regarding `CC1=C(/C=C/C(C)=C/C=C/C(C)=C/C(=O)Nc2cccc(C(=O)O)c2O)C(C)(C)CCC1` [Compound 21, N-(2′-hydroxy-3′-carboxyphenyl)retinamide], the growth inhibition entry in series [1] (setting [3]) is on record as “−”.

In turn, `CC1=C(/C=C/C(C)=C/C=C/C(C)=C/C(=O)Nc2ccc(C)cc2O)C(C)(C)CCC1` [Compound 3, N-(2′-hydroxy-4′-methylphenyl)retinamide] yielded a melting point of 146 to 147.5 °C. The growth inhibition result in series [1] (setting [3]) is recorded as “−”. The matching figures for `CC1=C(/C=C/C(C)=C/C=C/C(C)=C/C(=O)Nc2cc(Cl)c(C)c(Cl)c2O)C(C)(C)CCC1` [Compound 15, N-(3′,5′-dichloro-2′-hydroxy-4′-methylphenyl)retinamide]: 140 to 142 °C and “−”.

`CC1=C(/C=C/C(C)=C/C=C/C(C)=C/C(=O)Nc2ccc(O)c([N+](=O)[O-])c2)C(C)(C)CCC1` [Compound 17, N-(4′-hydroxy-3′-nitrophenyl)retinamide] showed a melting point of 157 to 159.5 °C. Further, in series [1] (setting [3]), the growth inhibition entry is given as “−”. Regarding `COc1ccc(NC(=O)/C=C(C)/C=C/C=C(C)/C=C/C2=C(C)CCCC2(C)C)cc1O` [Compound 9, N-(3′-hydroxy-4′-methoxyphenyl)retinamide], the melting point lay in the range of 119 to 124 °C. In series [1] (setting [3]), the growth inhibition entry is on record as “−”. Consider `COC(=O)c1cc(NC(=O)/C=C(C)/C=C/C=C(C)/C=C/C2=C(C)CCCC2(C)C)ccc1O` [Compound 27, N-(4′-hydroxy-3′-carboxymethylphenyl)retinamide], for which the growth inhibition entry in series [1] (setting [3]) is reported as “+ (+ = <50% the activity of standard)”.

On to `CC1=C(/C=C/C(C)=C/C=C/C(C)=C/C(=O)Nc2ccc([N+](=O)[O-])cc2O)C(C)(C)CCC1` [Compound 18, N-(2′-hydroxy-4′-nitrophenyl)retinamide], for which the melting point was in the range of 152 to 153.5 °C. Further, in series [1] (setting [3]), the growth inhibition entry is reported as “++ (++ = >50% the activity of standard)”. The “inducing apoptosis of cells” value in series [2] is reported as “effective at inducing apopotosis”. With `CC1=C(/C=C/C(C)=C/C=C/C(C)=C/C(=O)Nc2ccc(C(=O)O)c(O)c2)C(C)(C)CCC1` [Compound 26, N-(3′-hydroxy-4′-carboxyphenyl)retinamide], the growth inhibition entry in series [1] (setting [3]) was “−”. The same measure, in the same setting: to `CC1=C(/C=C/C(C)=C/C=C/C(C)=C/C(=O)Nc2c(C)cccc2O)C(C)(C)CCC1` [Compound 6, N-(2′-hydroxy-6′-methylphenyl)retinamide] belongs “−”. For `CC1=C(/C=C/C(C)=C/C=C/C(C)=C/C(=O)Nc2ccc(N)cc2)C(C)(C)CCC1` [Compound 33, N-(4′-aminophenyl)retinamide], the growth inhibition entry in series [1] (setting [3]) was “+ (+ = <50% the activity of standard)”. Regarding `CC1=C(/C=C/C(C)=C/C=C/C(C)=C/C(=O)Nc2cc(C)ccc2O)C(C)(C)CCC1` [Compound 4, N-(2′-hydroxy-5′-methylphenyl)retinamide], the melting point lay in the range of 98 to 100 °C. Also, the growth inhibition entry in series [1] (setting [3]) is given as “−”. The compound `CCS(=O)(=O)c1ccc(NC(=O)/C=C(C)/C=C/C=C(C)/C=C/C2=C(C)CCCC2(C)C)c(O)c1` [Compound 30, N-(4′-ethylsulfonyl-2′-hydroxyphenyl)retinamide] had a melting point of 145 to 147 °C. The growth inhibition entry in series [1] (setting [3]) is “−”. Take `CC1=C(/C=C/C(C)=C/C=C/C(C)=C/C(=O)Nc2ccc(O)cc2)C(C)(C)CCC1` [Compound 41, N-(4′-hydroxyphenyl)retinamide, reference compound]: the growth inhibition entry in series [1] (setting [3]) is “++ (++ = >50% the activity of standard)”.

Regarding `CC1=C(/C=C/C(C)=C/C=C/C(C)=C/C(=O)Nc2cc(Br)c(O)c(Br)c2)C(C)(C)CCC1` [Compound 14, N-(3′,5′-dibromo-4′-hydroxyphenyl)retinamide], the growth inhibition result in series [1] (setting [3]) is recorded as “−”. `CC1=C(/C=C/C(C)=C/C=C/C(C)=C/C(=O)Nc2ccc(C(=O)O)cc2O)C(C)(C)CCC1` [Compound 22, N-(2′-hydroxy-4′-carboxyphenyl)retinamide]: the growth inhibition result in series [1] (setting [3]) was “−”.
